Here are results for 1 molecule from article PMC3382599, “The Anti-Tumor Effect of A3 Adenosine Receptors Is Potentiated by Pulsed Electromagnetic Fields in Cultured Neural Cancer Cells” (PLoS ONE, 2012).

The experiment concerns the target T1, A2BARs (rat cortical neurons) (Rattus norvegicus, UniProt P29276).
T1 construct: gene Adora2b; native receptor in membranes of primary cortical neurons from day-18 rat embryos
T1 sequence (P29276 1-332): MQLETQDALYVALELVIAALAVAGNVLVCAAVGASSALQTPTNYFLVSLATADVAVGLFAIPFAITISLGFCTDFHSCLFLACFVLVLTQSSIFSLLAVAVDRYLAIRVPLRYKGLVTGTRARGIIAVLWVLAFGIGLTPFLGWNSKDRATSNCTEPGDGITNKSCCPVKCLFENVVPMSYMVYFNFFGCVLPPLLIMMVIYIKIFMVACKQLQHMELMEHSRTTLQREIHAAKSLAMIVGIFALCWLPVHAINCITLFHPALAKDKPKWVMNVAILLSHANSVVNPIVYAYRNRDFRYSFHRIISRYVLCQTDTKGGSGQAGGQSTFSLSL
Nature of the experiment: radioligand saturation binding, membranes. The note with it: rat cortical neuron membranes, no PEMF; labelled compound. An excerpt: radioligand saturation binding, membranes on A2BARs (rat cortical neurons)

Each structure is given as a SMILES string.

For `CCCn1c(=O)c2[nH]c(-c3cc(OCC(=O)Nc4ccc5c(c4)OCO5)nn3C)nc2n(CCC)c1=O` [[3H]-MRE 2029F20, [^3H]-N-benzo [1], [3]dioxol-5-yl-2-[5-(2,6-dioxo-1,3-dipropyl-2,3,6,7-tetrahydro-1H-purin-8-yl)-1-methy-1H-pyrazol-3-yl-oxy]-acetamide], binding was put at a Kd of 1.52 ± 0.11 nM.
